Reference: patent US20220323427A1, “SOMATOSTATIN RECEPTOR TYPE 5 AGONIST FOR THE TREATMENT OF HYPERINSULINISM” (Crinetics Pharmaceuticals, Inc., priority 2021, published 2022)

Tested on: sulfonylurea-induced hyperinsulinism
Experiment: Sulfonylurea (glibenclamide) challenge and euglycemic clamp, SAD
Format: in vivo, human
Settings: single dose 30 mg or 60 mg
Protocol: SAD 1b/Part 1b: ascending single dose, randomized, placebo-controlled, double-blind; up to 3 cohorts, n=8/cohort; subjects in SAD 1b will undergo an SU challenge and euglycemic clamp procedure. Doses are 30 mg or 60 mg.
In SAD 1b and the MAD, subjects will undergo an SU challenge in the setting of a euglycemic clamp procedure. Sulfonylurea drugs act to close KATP channel of the pancreatic β-cell, stimulating endogenous insulin secretion. Given that the majority (50%) of patients with congenital HI harbor a mutation in the KATP channel, the SU challenge models this genetic form of HI in healthy volunteers. Intravenous glucose will be used during the euglycemic clamp to maintain glucose within a target range. […] The SU challenge cohorts in SAD 1b will assess the ability of a single dose of Compound 1 to reduce or prevent SU-induced glucose lowering as measured by reduced IV glucose infusion (reduced glucose “support”). IV glucose requirements will be assessed as a glucose infusion rate, or GIR (mg dextrose/kg body weight/minute). In the MAD, the durability of the Compound 1 effect will be measured by assessing the GIR required to maintain euglycemia during the SU challenge after 10 days of Compound 1 dosing compared to the baseline SU challenge in the absence (predose) of Compound 1. […]

For `C[C@H](NC(=O)c1cnc(C#N)c(-c2cc(F)cc(F)c2)c1N1CC[C@H](N)C1)C(F)(F)F` [Compound 1, 4-[(3S)-3-aminopyrrolidin-1-yl]-6-cyano-5-(3,5-difluorophenyl)-N-[(2S)-1,1,1-trifluoropropan-2-yl]pyridine-3-carboxamide], the “Effect on sulfonylurea-induced hyperinsulinism” value was “reversed sulfonylurea-induced hyperinsulinism” and the “Need for IV glucose support (glucose infusion rate)” value was “eliminating the need for IV glucose support”.
